These results are taken from US20110022129A1, “NANOPARTICLES FOR PHOTODYNAMIC THERAPY” (priority 2007, published 2011).

One data set in a line: physchem. The note with it: aqueous with cosolvent or surfactant or cyclodextrin, kinetic from dmso stock.
Data set [1] has as its system AB12, murine malignant pleural mesothelioma (MPM). The data set is described as follows: External-beam (980 nm infrared) nanophosphor-mediated photodynamic therapy of AB12 flank tumors in mice. The class given is in vivo, mouse (BALB/cJ). The note with it: for total number of surviving animals: sixty day observation, survivors/group size. The procedure:
Six to twelve week old, female BALB/cJ (AB12 tumor host) mice, obtained pathogen-free from Taconic Farms, were used for all of the experiments. Animals were kept in conventional conditions in micro-isolator cages in a laminar flow unit under ambient light with full access to food and water during experiments.
AB12, murine malignant pleural mesothelioma (MPM) was utilized for tumor inoculation. Cells were maintained in complete DMEM/F12 culture media in a 37° C. humidified 5% CO2 incubator.
Seventy balb/C mice were inoculated with 5×10^5 AB12, malignant mesothelioma cells via subcutaneous flank injection. The subsequent tumors were measured using digital calipers three times per week until the tumors reached ˜200-300 mm^3 at which time the mice were given their first treatment. Mice were divided into […]. The groups were as follows: i. Control, ii. Infrared light-Nanophosphor-Photosensitizer (IR-NP-PS), iii. IR-NP, iv. IR-PS, v. IR alone, vi. NP alone, and vii. PS alone. Groups ii, iii, and vi were administered intra-tumoral injections with 100 μl of 25 mg/ml nanophosphor suspension in saline at 72 and 48 h prior to only the first treatment. Groups ii, iv, and vii were administered weekly intra-peritoneal (i.p.) injections of 10 mg/kg Photofrin™, twenty-four hours before first treatment of each week.
For this procedure mice were anesthetized with i.p. ketamine and xylazine, 80 mg/kg and 12 mg/kg, respectively. A maximum dose of 1.0 W of 980 nm light (BW Tek) at the treatment surface was measured using an IR thermopile detector (Coherent, Inc) for a total dose of 28.3 J/cm^2. Pulsed light delivery method of 1 second ON, 2 seconds OFF for 1.5 hours was utilized to minimize damage of healthy tissue due to heat from the infrared light by allowing the tissue to dissipate the heat between delivery cycles. […] Over the course of the entire treatment program tumors were measured three times weekly and mice were monitored for signs of morbidity for 60 days or until tumors reached endpoint of 500 mm^3.

In brackets after ≈: the same amount, converted by molar mass.

Source text for physchem: Nanoparticles were isolated as previously described, and the concentration of free β-carotene in the filtrate measured.

`CC1=C(/C=C/C(C)=C/C=C/C(C)=C/C=C/C=C(C)/C=C/C=C(C)/C=C/C2=C(C)CCCC2(C)C)C(C)(C)CCC1` [β-carotene] came in with a solubility in “physchem” of about 50 µg/mL (≈ 93.1 µM).

As for Photofrin [IR-PS], the tumor regression entry in data set [1] (over treatment program, in words) is on record as “No animals”. For the same molecule, in data set [1], the “total number of surviving animals” value was 0/10.

Take Photofrin [PS alone]: the “total number of surviving animals” value in data set [1] is reported as 0/9.

The term solubility denotes the dissolved amount per volume that the medium holds. Low readings indicate a poorly soluble substance, high ones a readily soluble substance.
